Measured values as given in PubChem BioAssay AID1963850 (Molecular Pharmacology Branch, DTP, NCI, 2024).

Tested on: 192522-019-R-J2-PDC complex tumor spheroid viability
Assay: Anticancer human tumor 192522-019-R-J2-PDC patient-derived colon adenocarcinoma cell line growth inhibition [POLQ]
Conditions: for IC50: curve of first compound; for viability, T/C: stronger effect = lower value
Procedure, shortened: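 PDC + HUVEC + MSC complex spheroids; POLQ inhibitors ± partner drugs; top conc. at/near clinical Cmax, else 10 microM (SN-38 1 microM), half-log dilutions; 37 degrees C, 5% CO2.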
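Also: spheroids exposed to drugs for seven days before reading.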
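For viability, T/C in this document: 100% = DMSO vehicle control viability in luminescence.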

## CC[C@@]1(O)C(=O)OCc2c1cc1n(c2=O)Cc2cc3c(CN(C)C)c(O)ccc3nc2-1 + COC1C(OC(N)=O)C(O)C(Oc2ccc3c(O)c(NC(=O)c4ccc(O)c(CC=C(C)C)c4)c(=O)oc3c2C)OC1(C)C
Second compound 0.0316 µM
  IC50: > 100 nM
Second compound 0.1 µM
  IC50: > 100 nM
Second compound 0.316 µM
  IC50: > 100 nM
Second compound 1 µM
  IC50: > 100 nM
Second compound 3.16 µM
  IC50: > 100 nM
Second compound 10 µM
  IC50: > 100 nM
Second compound 0.0316 µM, first compound 0.000316 µM
  viability, T/C: 113%
Second compound 0.0316 µM, first compound 0.001 µM
  viability, T/C: 95.6%
Second compound 0.0316 µM, first compound 0.00316 µM
  viability, T/C: 101%
Second compound 0.0316 µM, first compound 0.01 µM
  viability, T/C: 96.6%
Second compound 0.0316 µM, first compound 0.0316 µM
  viability, T/C: 87.5%
Second compound 0.0316 µM, first compound 0.1 µM
  viability, T/C: 52.1%
Second compound 0.1 µM, first compound 0.000316 µM
  viability, T/C: 98.4%
Second compound 0.1 µM, first compound 0.001 µM
  viability, T/C: 103%
Second compound 0.1 µM, first compound 0.00316 µM
  viability, T/C: 102%
Second compound 0.1 µM, first compound 0.01 µM
  viability, T/C: 96%
Second compound 0.1 µM, first compound 0.0316 µM
  viability, T/C: 90.4%
Second compound 0.1 µM, first compound 0.1 µM
  viability, T/C: 56.1%
Second compound 0.316 µM, first compound 0.000316 µM
  viability, T/C: 105%
Second compound 0.316 µM, first compound 0.001 µM
  viability, T/C: 106%
Second compound 0.316 µM, first compound 0.00316 µM
  viability, T/C: 102%
Second compound 0.316 µM, first compound 0.01 µM
  viability, T/C: 99.6%
Second compound 0.316 µM, first compound 0.0316 µM
  viability, T/C: 87.6%
Second compound 0.316 µM, first compound 0.1 µM
  viability, T/C: 58.1%
Second compound 1 µM, first compound 0.000316 µM
  viability, T/C: 103%
Second compound 1 µM, first compound 0.001 µM
  viability, T/C: 99.6%
Second compound 1 µM, first compound 0.00316 µM
  viability, T/C: 105%
Second compound 1 µM, first compound 0.01 µM
  viability, T/C: 102%
Second compound 1 µM, first compound 0.0316 µM
  viability, T/C: 84.8%
Second compound 1 µM, first compound 0.1 µM
  viability, T/C: 53.9%
Second compound 3.16 µM, first compound 0.000316 µM
  viability, T/C: 102%
Second compound 3.16 µM, first compound 0.001 µM
  viability, T/C: 99.1%
Second compound 3.16 µM, first compound 0.00316 µM
  viability, T/C: 99.8%
Second compound 3.16 µM, first compound 0.01 µM
  viability, T/C: 109%
Second compound 3.16 µM, first compound 0.0316 µM
  viability, T/C: 92.3%
Second compound 3.16 µM, first compound 0.1 µM
  viability, T/C: 55.5%
Second compound 10 µM, first compound 0.000316 µM
  viability, T/C: 108%
Second compound 10 µM, first compound 0.001 µM
  viability, T/C: 103%
Second compound 10 µM, first compound 0.00316 µM
  viability, T/C: 98.5%
Second compound 10 µM, first compound 0.01 µM
  viability, T/C: 103%
Second compound 10 µM, first compound 0.0316 µM
  viability, T/C: 84.8%
Second compound 10 µM, first compound 0.1 µM
  viability, T/C: 57.6%
